Laboratory results reported in patent US10800791B2, “Triazole ACC inhibitors and uses thereof” (Gilead Apollo, LLC, priority 2015, dated 2020).
In brackets after ≈: the same amount, converted by molar mass. Like-named read-outs stand apart in the source and are kept apart here.

Experiments:
Rhizoctonia solani (Rs) = assay: Growth inhibition assay of fungal pathogens, Rs; assay type: cell-based; conditions: 48 h
Septoria tritici (St) = assay: Growth inhibition assay of fungal pathogens, St; assay type: cell-based; conditions: Zymoseptoria tritici, 48 h, growth inhibition at 48 hours vs 2% DMSO control
In short: (§1)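 Pathogen growth in 17% V8 broth is measured by OD600 at 24 and 48 hours, after blank subtraction, in the presence of compound at 50, 10 and 2 ppm or 2, 0.4 and 0.08 ppm. Inhibition in percent comes from 48-hour readings against the DMSO control.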

Botrtyis cinerea (Bc) = assay: Growth inhibition assay of fungal pathogens, Bc; assay type: cell-based; conditions: 48 h, growth inhibition at 48 hours vs 2% DMSO control
In short: as §1

human (hACC2) = human (hACC2) (Homo sapiens, UniProt O00763); assay: In vitro ACC inhibition assay (ADP-Glo), hACC2; assay type: biochemical; conditions: 5 nM ACC2, 20 μM ATP, 20 μM acetyl-CoA
human (hACC2), sequence (O00763 whole entry): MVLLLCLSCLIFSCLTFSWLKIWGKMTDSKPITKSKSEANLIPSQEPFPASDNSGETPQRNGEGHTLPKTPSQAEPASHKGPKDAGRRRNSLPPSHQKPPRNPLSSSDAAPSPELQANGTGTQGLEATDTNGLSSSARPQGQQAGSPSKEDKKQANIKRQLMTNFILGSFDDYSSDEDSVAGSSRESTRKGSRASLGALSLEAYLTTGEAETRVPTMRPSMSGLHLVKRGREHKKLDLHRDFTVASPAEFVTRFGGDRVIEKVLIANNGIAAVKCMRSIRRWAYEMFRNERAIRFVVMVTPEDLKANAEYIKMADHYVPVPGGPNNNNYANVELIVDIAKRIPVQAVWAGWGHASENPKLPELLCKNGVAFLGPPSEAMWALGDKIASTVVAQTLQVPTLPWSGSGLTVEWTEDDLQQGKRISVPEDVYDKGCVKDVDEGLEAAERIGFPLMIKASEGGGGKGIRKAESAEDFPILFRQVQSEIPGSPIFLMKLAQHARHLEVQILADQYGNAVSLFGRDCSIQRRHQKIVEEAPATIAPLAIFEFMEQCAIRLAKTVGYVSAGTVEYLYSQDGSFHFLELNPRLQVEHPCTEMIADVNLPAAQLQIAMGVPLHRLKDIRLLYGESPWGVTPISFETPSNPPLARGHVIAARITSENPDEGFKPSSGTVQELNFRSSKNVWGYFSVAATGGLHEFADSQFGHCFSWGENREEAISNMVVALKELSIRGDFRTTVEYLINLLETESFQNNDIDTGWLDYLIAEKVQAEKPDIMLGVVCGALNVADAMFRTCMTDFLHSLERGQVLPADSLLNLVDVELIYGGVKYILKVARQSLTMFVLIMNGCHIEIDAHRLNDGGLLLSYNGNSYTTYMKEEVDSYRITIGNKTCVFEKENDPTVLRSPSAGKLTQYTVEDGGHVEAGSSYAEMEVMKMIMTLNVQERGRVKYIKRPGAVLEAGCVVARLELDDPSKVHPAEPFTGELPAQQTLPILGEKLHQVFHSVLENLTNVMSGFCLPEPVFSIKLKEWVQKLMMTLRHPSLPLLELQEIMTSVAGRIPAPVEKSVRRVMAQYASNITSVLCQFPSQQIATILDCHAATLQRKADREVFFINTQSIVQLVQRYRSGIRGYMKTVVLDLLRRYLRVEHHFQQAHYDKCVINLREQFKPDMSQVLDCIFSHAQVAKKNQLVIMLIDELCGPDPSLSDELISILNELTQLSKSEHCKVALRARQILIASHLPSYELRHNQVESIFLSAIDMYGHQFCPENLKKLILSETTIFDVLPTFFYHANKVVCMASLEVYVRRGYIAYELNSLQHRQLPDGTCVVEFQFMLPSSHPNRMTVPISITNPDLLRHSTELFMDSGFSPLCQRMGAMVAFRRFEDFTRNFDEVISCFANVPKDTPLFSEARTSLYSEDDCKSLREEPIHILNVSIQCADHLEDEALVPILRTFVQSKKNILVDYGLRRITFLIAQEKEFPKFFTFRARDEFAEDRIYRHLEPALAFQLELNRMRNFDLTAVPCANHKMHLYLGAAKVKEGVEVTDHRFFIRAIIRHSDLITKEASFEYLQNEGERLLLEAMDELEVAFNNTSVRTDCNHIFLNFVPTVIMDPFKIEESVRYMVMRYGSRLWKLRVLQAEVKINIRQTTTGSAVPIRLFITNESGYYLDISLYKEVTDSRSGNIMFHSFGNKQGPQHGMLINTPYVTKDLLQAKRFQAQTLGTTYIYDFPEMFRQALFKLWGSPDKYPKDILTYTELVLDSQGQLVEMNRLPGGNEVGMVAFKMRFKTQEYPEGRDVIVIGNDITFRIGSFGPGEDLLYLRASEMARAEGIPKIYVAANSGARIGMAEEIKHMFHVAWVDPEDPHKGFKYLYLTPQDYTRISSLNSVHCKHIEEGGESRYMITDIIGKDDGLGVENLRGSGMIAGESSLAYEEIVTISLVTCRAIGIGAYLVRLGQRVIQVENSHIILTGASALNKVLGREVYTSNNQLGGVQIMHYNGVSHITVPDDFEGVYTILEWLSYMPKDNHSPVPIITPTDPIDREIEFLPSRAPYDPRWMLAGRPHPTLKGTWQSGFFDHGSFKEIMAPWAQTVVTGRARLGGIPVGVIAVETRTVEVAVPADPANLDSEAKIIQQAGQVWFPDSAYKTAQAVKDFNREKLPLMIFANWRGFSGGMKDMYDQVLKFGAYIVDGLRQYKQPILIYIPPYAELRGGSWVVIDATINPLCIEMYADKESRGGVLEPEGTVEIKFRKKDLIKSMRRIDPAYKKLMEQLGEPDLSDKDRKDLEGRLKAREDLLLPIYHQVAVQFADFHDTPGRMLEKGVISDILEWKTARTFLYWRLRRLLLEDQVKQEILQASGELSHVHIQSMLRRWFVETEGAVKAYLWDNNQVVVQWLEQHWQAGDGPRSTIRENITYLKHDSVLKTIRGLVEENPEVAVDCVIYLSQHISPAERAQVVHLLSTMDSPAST
Method: The detailed procedure is as follows. […] 10 μL ADP glo reagent was added. […] 20 μL kinase detection reagent was added.

C. parapsilosis = assay: Antifungal Activity Assay (broth microtiter MIC), C. parapsilosis; assay type: cell-based, Candida parapsilosis; conditions: Lodderomyces parapsilosis, ATCC22019, 48 h
In short: (§2)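 CLSI M27-A3 microdilution; RPMI 1640+MOPS; 2.5×10^3 CFU/mL final inoculum; cultures from Sabouraud dextrose agar, 35° C overnight; compound working solution 128 μg/mL from 1 mg/mL DMSO stock; visual MIC at 48 h vs growth control.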

[1] = tested on: Fusarium virguliforme (Fv); assay: Growth inhibition assay of fungal pathogens, Fv; assay type: cell-based; conditions: 48 h
In short: as §1

Diplodia maydis (Dm) = assay: Growth inhibition assay of fungal pathogens, Dm; assay type: cell-based; conditions: Stenocarpella maydis, 48 h, growth inhibition at 48 hours vs 2% DMSO control
In short: as §1

[2] = tested on: Collectotrichum graminicola (Cg); assay: Growth inhibition assay of fungal pathogens, Cg; assay type: cell-based; conditions: 48 h, growth inhibition at 48 hours vs 2% DMSO control
In short: as §1

C. albicans = assay: Antifungal Activity Assay (broth microtiter MIC), C. albicans; assay type: cell-based, Candida albicans; conditions: Candida albicans, ATCC90028, 48 h
In short: as §2

[3] = tested on: Fusarium moniliforme (Fm); assay: Growth inhibition assay of fungal pathogens, Fm; assay type: cell-based; conditions: Fusarium verticillioides, 48 h, read-out: Concentration at 90% Inhibition Fm
In short: as §1

[4] = tested on: Phytophthora capsici (Pc); assay: Growth inhibition assay of fungal pathogens, Pc; assay type: cell-based; conditions: 48 h
In short: as §1

C. krusei = assay: Antifungal Activity Assay (broth microtiter MIC), C. krusei; assay type: cell-based, Candida krusei; conditions: Pichia kudriavzevii, ATCC6258, 48 h
In short: as §2

fungal (fACC2) = fungal (fACC2) (UniProt Q00955); conditions: read-out: fACC2 (in vitro ACC2 Inhibition Assay, IC50), ADP-Glo, 5 nM ACC2, 20 μM ATP, 20 μM acetyl-CoA
fungal (fACC2), sequence (Q00955 whole entry): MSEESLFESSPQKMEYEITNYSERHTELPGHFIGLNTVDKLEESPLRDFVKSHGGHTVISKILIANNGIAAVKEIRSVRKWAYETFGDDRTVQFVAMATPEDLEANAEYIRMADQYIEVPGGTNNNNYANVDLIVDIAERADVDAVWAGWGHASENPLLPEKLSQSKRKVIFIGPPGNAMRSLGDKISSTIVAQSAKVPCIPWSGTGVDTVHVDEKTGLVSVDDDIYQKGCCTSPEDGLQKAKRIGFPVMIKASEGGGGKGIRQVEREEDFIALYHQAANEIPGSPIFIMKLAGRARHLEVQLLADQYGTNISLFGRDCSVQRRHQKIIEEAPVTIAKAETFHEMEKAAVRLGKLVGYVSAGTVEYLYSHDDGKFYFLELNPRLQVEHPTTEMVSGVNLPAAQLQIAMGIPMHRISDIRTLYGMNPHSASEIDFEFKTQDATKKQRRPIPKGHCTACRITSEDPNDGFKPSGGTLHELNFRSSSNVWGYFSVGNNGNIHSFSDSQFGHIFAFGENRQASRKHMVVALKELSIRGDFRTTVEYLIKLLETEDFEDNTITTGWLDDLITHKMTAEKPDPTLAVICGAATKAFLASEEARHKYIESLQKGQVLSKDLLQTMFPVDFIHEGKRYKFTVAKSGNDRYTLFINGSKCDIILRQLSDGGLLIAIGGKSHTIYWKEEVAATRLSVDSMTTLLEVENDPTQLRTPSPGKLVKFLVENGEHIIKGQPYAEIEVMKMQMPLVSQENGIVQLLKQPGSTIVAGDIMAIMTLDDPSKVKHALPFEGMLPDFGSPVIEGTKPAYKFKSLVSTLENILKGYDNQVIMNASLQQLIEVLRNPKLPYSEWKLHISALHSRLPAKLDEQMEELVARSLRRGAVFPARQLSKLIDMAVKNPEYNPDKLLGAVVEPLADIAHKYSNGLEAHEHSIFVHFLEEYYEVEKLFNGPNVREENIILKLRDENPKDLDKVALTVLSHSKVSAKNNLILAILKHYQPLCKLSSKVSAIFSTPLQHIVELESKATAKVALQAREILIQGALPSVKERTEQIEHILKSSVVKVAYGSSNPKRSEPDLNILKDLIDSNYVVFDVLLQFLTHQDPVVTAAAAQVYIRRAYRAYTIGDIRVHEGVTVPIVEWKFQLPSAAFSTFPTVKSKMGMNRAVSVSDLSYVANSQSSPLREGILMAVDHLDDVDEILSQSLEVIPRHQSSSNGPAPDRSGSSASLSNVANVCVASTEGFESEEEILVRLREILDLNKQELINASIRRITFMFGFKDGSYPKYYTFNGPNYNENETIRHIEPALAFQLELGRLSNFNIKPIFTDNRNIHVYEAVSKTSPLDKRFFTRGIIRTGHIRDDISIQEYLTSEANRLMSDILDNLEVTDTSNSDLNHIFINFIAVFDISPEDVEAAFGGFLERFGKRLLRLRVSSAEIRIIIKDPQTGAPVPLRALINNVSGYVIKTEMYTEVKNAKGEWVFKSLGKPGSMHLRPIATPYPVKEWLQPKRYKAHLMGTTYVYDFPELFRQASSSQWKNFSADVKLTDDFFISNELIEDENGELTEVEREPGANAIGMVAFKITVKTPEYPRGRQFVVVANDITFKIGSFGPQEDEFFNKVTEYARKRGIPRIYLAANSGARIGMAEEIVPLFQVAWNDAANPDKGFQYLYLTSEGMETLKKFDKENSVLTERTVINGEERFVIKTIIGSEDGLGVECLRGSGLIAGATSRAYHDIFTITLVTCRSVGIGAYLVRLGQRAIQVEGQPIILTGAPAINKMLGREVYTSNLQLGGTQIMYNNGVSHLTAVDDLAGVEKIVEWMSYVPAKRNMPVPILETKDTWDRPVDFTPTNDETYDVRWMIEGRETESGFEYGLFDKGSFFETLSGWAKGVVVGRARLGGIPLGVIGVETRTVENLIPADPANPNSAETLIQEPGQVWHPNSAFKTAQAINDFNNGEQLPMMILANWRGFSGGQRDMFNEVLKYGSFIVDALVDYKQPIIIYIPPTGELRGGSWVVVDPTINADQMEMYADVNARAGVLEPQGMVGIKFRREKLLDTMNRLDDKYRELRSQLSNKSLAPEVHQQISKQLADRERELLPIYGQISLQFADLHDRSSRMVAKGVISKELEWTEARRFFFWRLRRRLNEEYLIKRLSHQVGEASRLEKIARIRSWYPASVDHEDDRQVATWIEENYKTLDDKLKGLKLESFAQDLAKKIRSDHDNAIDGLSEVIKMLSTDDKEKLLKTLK

[5] = mycelial plugs, growth inhibition at 48 hours vs 2% DMSO control, read-out: Concentration at 90% Inhibition Rs
[6] = Septoria tritici, read-out: Concentration at 90% Inhibition St
[7] = Botrtyis cinerea, read-out: Concentration at 90% Inhibition Bc
[8] = Table 3b (additional results), ATCC 22019, 3 replicates, MIC recorded at 48 h, read-out: MIC, C. parapsilosis ATCC 22019
[9] = growth inhibition at 48 hours vs 2% DMSO control, read-out: Concentration at 90% Inhibition Fv
[10] = Diplodia maydis, read-out: Concentration at 90% Inhibition Dm
[11] = Collectotrichum graminicola, read-out: Concentration at 90% Inhibition Cg
[12] = Table 3b (additional results), ATCC 90028, 3 replicates, MIC recorded at 48 h, read-out: MIC, C. albicans ATCC 90028
[13] = Fusarium moniliforme, growth inhibition at 48 hours vs 2% DMSO control
[14] = growth inhibition at 48 hours vs 2% DMSO control, read-out: Concentration at 90% Inhibition Pc
[15] = Table 3b (additional results), ATCC 6258, 3 replicates, MIC recorded at 48 h, read-out: MIC, C. krusei ATCC 6258

Row | Structure (SMILES) | IC90 (Rhizoctonia solani (Rs); [5]) | IC90 (Septoria tritici (St); [6]) | IC90 (Botrtyis cinerea (Bc); [7]) | IC50 (human (hACC2); Table 2a) | IC50 (human (hACC2); Table 2b, additional results) | MIC (C. parapsilosis; [8]) | IC90 [1, 9] | IC90 (Diplodia maydis (Dm); [10]) | IC90 [2, 11] | MIC (C. albicans; [12]) | IC90 [3, 13] | IC90 [4, 14] | MIC (C. krusei; [15]) | IC50 (fungal (fACC2); Table 2a) | IC50 (fungal (fACC2); Table 2b, additional results) | also measured
1 | COc1ccc(F)cc1[C@H](Cn1c(=O)n(C(C)(C)C(=O)NC(C)C)c(=O)c2c(C)c(-n3nccn3)sc21)OC[C@H](C)C#N [Compound I-151] | 0.08 µg/mL (≈ 0.131 µM) | > 50 µg/mL | 0.4 µg/mL (≈ 0.654 µM) | 5 to 10 nM | 1 to 5 nM | 0.25 to 1 µg/mL (≈ 0.409 to 1.63 µM) | 0.4 µg/mL (≈ 0.654 µM) | 0.08 µg/mL (≈ 0.131 µM) | 0.08 µg/mL (≈ 0.131 µM) | 0.25 to 1 µg/mL (≈ 0.409 to 1.63 µM) | 0.08 µg/mL (≈ 0.131 µM) | > 50 µg/mL | 0.25 to 1 µg/mL (≈ 0.409 to 1.63 µM) | 0.4 to 1 nM | 0.3 to 1 nM | MIC (C. parapsilosis; Table 3a, ATCC 22019, 3 replicates, MIC recorded at 48 h, read-out: MIC, C. parapsilosis ATCC 22019): 0.25 to 1 µg/mL (≈ 0.409 to 1.63 µM); MIC (C. albicans; Table 3a, ATCC 90028, 3 replicates, MIC recorded at 48 h, read-out: MIC, C. albicans ATCC 90028): 0.25 to 1 µg/mL (≈ 0.409 to 1.63 µM); MIC (C. krusei; Table 3a, ATCC 6258, 3 replicates, MIC recorded at 48 h, read-out: MIC, C. krusei ATCC 6258): 0.25 to 1 µg/mL (≈ 0.409 to 1.63 µM)
2 | COc1ccc(F)cc1[C@H](Cn1c(=O)n(C(C)(C)C(=O)NC(C)C)c(=O)c2c(C)c(-n3nccn3)sc21)OCC(C)(C)C#N [Compound I-154] |  |  |  | 5 to 10 nM | 5 to 10 nM |  |  |  |  |  |  |  |  | 1 to 5 nM | 1 to 5 nM | IC90 (Rhizoctonia solani (Rs); read-out: Concentration at 90% Inhibition Rs, Rhizoctonia solani, mycelial plugs, growth inhibition at 48 hours vs 2% DMSO control): 0.08 µg/mL (≈ 0.128 µM); IC90 (Septoria tritici (St); read-out: Concentration at 90% Inhibition St, Septoria tritici): > 50 µg/mL; IC90 (Botrtyis cinerea (Bc); read-out: Concentration at 90% Inhibition Bc, Botrtyis cinerea): 0.4 µg/mL (≈ 0.639 µM); MIC (C. parapsilosis; read-out: MIC, C. parapsilosis ATCC 22019, Table 3a, 3 replicates, MIC recorded at 48 h): 0.25 to 1 µg/mL (≈ 0.4 to 1.6 µM); MIC (C. parapsilosis; read-out: MIC, C. parapsilosis ATCC 22019, Table 3b (additional results), 3 replicates, MIC recorded at 48 h): 1.01 to 2 µg/mL (≈ 1.61 to 3.2 µM); IC90 ([1]; read-out: Concentration at 90% Inhibition Fv, Fusarium virguliforme, growth inhibition at 48 hours vs 2% DMSO control): 0.4 µg/mL (≈ 0.639 µM); IC90 (Diplodia maydis (Dm); read-out: Concentration at 90% Inhibition Dm, Diplodia maydis): 0.08 µg/mL (≈ 0.128 µM); IC90 ([2]; read-out: Concentration at 90% Inhibition Cg, Collectotrichum graminicola): 0.4 µg/mL (≈ 0.639 µM); MIC (C. albicans; read-out: MIC, C. albicans ATCC 90028, Table 3a, 3 replicates, MIC recorded at 48 h): 0.25 to 1 µg/mL (≈ 0.4 to 1.6 µM); MIC (C. albicans; read-out: MIC, C. albicans ATCC 90028, Table 3b (additional results), 3 replicates, MIC recorded at 48 h): 0.25 to 1 µg/mL (≈ 0.4 to 1.6 µM); IC90 [3]: 0.08 µg/mL (≈ 0.128 µM); IC90 ([4]; read-out: Concentration at 90% Inhibition Pc, Phytophthora capsici, growth inhibition at 48 hours vs 2% DMSO control): > 50 µg/mL; MIC (C. krusei; read-out: MIC, C. krusei ATCC 6258, Table 3a, 3 replicates, MIC recorded at 48 h): 0.25 to 1 µg/mL (≈ 0.4 to 1.6 µM); MIC (C. krusei; read-out: MIC, C. krusei ATCC 6258, Table 3b (additional results), 3 replicates, MIC recorded at 48 h): 0.25 to 1 µg/mL (≈ 0.4 to 1.6 µM)
3 | COc1ccc(F)cc1[C@H](Cn1c(=O)n([C@H](C)C(=O)N2CCCC2)c(=O)c2c(C)c(-n3nccn3)sc21)OCCC#N [Compound I-187] | 0.4 µg/mL (≈ 0.672 µM) | > 50 µg/mL | 0.4 µg/mL (≈ 0.672 µM) |  | 1 to 5 nM | 1.01 to 2 µg/mL (≈ 1.7 to 3.36 µM) | 0.4 µg/mL (≈ 0.672 µM) | 2 µg/mL (≈ 3.36 µM) | 2 µg/mL (≈ 3.36 µM) | 2.01 to 4 µg/mL (≈ 3.37 to 6.72 µM) | 0.08 µg/mL (≈ 0.134 µM) | > 50 µg/mL | 2.01 to 4 µg/mL (≈ 3.37 to 6.72 µM) |  | 1 to 5 nM | 
4 | COc1ccc(F)cc1[C@H](Cn1c(=O)n([C@@H](C)C(=O)N(C)C(C)C)c(=O)c2c(C)c(-n3nccn3)sc21)OCCC#N [Compound I-188] | 2 µg/mL (≈ 3.35 µM) | > 50 µg/mL | 2 µg/mL (≈ 3.35 µM) |  | 5 to 10 nM | 2.01 to 4 µg/mL (≈ 3.36 to 6.69 µM) | 2 µg/mL (≈ 3.35 µM) | 2 µg/mL (≈ 3.35 µM) | 10 µg/mL (≈ 16.7 µM) | 2.01 to 4 µg/mL (≈ 3.36 to 6.69 µM) | 0.4 µg/mL (≈ 0.669 µM) | > 50 µg/mL | 2.01 to 4 µg/mL (≈ 3.36 to 6.69 µM) |  | 0.3 to 1 nM | 
5 | COc1ccc(F)cc1[C@@H](O)Cn1c(=O)n(C(C)(C)C(N)=O)c(=O)c2c(C)c(-n3nccn3)sc21 [Compound I-194] | > 50 µg/mL | > 50 µg/mL | 10 µg/mL (≈ 19.9 µM) |  | 5 to 10 nM | > 4.01 µg/mL | > 50 µg/mL | > 50 µg/mL | > 50 µg/mL | 2.01 to 4 µg/mL (≈ 4 to 7.96 µM) | 10 µg/mL (≈ 19.9 µM) | > 50 µg/mL | 2.01 to 4 µg/mL (≈ 4 to 7.96 µM) |  | 1 to 5 nM | 
